Key:
Test in all cases: Test A pre/postemergence
Type in all cases: in vivo
[1] = tested on: giant foxtail (Setaria faberi)
Procedure: (§1) Seeds of barnyardgrass (Echinochloa crus-galli), crabgrass (Digitaria sanguinalis), giant foxtail (Setaria faberi), morningglory (Ipomoea spp.), redroot pigweed (Amaranthus retroflexus) and velvetleaf (Abutilon theophrasti) were planted into a blend of loam soil and sand and treated preemergence with a directed soil spray using test chemicals formulated in a non-phytotoxic solvent mixture which included a surfactant. At the same time these species were also treated with postemergence applications of test chemicals formulated in the same manner.
(§2) Plants ranged in height from 2 to 10 cm and were in the 1- to 2-leaf stage for the postemergence treatment. Treated plants and untreated controls were maintained in a greenhouse for approximately ten days, after which time all treated plants were compared to untreated controls and visually evaluated for injury. Plant response ratings, summarized in Table A, are based on a 0 to 100 scale where 0 is no effect and 100 is complete control. A dash (-) response means no test results.

[2] = tested on: morningglory (Ipomoea spp.)
Procedure: as §1, §2

[3] = tested on: velvetleaf (Abutilon theophrasti)
Procedure: as §1, §2

[4] = tested on: crabgrass (Digitaria sanguinalis)
Procedure: as §1, §2

[5] = tested on: redroot pigweed (Amaranthus retroflexus)
Procedure: as §1, §2

[6] = tested on: barnyardgrass (Echinochloa crus-galli)
Procedure: as §1, §2

[7] = Postemergence, 125 g ai/ha, 0 to 100 scale (0 no effect, 100 complete control)
[8] = Postemergence, 500 g ai/ha, 0 to 100 scale (0 no effect, 100 complete control)
[9] = Preemergence, 125 g ai/ha, 0 to 100 scale where 0 is no effect and 100 is complete control, approximately ten days
[10] = Preemergence, 500 g ai/ha, 0 to 100 scale where 0 is no effect and 100 is complete control, approximately ten days

Compound | Plant response rating, Foxtail, Giant [1, 7] | Plant response rating, Foxtail, Giant [1, 8] | Plant response rating, Foxtail, Giant [1, 9] | Plant response rating, Foxtail, Giant [1, 10] | Plant response rating, Morningglory [2, 7] | Plant response rating, Morningglory [2, 8] | Plant response rating, Morningglory [2, 9] | Plant response rating, Morningglory [2, 10] | Plant response rating, Velvetleaf [3, 7] | Plant response rating, Velvetleaf [3, 8] | Plant response rating, Velvetleaf [3, 9] | Plant response rating, Velvetleaf [3, 10] | Plant response rating, Crabgrass [4, 7] | Plant response rating, Crabgrass [4, 8] | Plant response rating, Crabgrass [4, 9] | Plant response rating, Crabgrass [4, 10] | Plant response rating, Pigweed [5, 7] | Plant response rating, Pigweed [5, 8] | Plant response rating, Pigweed [5, 9] | Plant response rating, Pigweed [5, 10] | also measured
COC(OC)c1nc(-c2ccc(I)cc2)nc(N)c1Cl [Compound 134] | 0 | 0 | 0 | 0 | 0 | 0 | 0 | 0 | 50 | 55 | 0 | 0 | 0 | 0 | 0 | 0 | 15 | 30 | 0 | 0 | Plant response rating, Barnyardgrass [6, 7]: 0; Plant response rating, Barnyardgrass [6, 8]: 0; Plant response rating, Barnyardgrass [6, 9]: 0; Plant response rating, Barnyardgrass [6, 10]: 0
CC(C)N.Nc1nc(C2CC2)nc(C(=O)O)c1Cl [Compound 144] | 70 | 80 | 35 | 80 | 85 | 95 | 85 | 95 | 95 | 100 | 75 | 85 | 40 | 80 | 75 | 95 | 85 | 100 | 75 | 85 | Plant response rating, Barnyardgrass [6, 7]: 60; Plant response rating, Barnyardgrass [6, 8]: 90; Plant response rating, Barnyardgrass [6, 9]: 65; Plant response rating, Barnyardgrass [6, 10]: 80
CCOC(=O)c1nc(-c2cccc(C(F)(F)F)c2)nc(N)c1Cl [Compound 107] | 0 | 35 | 0 | 0 | 0 | 0 | 0 | 0 | 35 | 65 | 0 | 10 | 0 | 5 | 0 | 5 | 10 | 10 | 0 | 0 | Plant response rating, Barnyardgrass [6, 7]: 0; Plant response rating, Barnyardgrass [6, 8]: 0; Plant response rating, Barnyardgrass [6, 9]: 0; Plant response rating, Barnyardgrass [6, 10]: 0
CC(C)c1nc(N)c(Cl)c(C(=O)[O-])n1.[Na+] [Compound 109] | 0 | 10 | 0 | 5 | 70 | 80 | 30 | 95 | 25 | 80 | 15 | 50 | 0 | 10 | 0 | 25 | 60 | 85 | 50 | 80 | Plant response rating, Barnyardgrass [6, 7]: 0; Plant response rating, Barnyardgrass [6, 8]: 10; Plant response rating, Barnyardgrass [6, 9]: 0; Plant response rating, Barnyardgrass [6, 10]: 25
CC(C)OC(=O)c1nc(-c2ccc(Cl)cc2)nc(N)c1Cl [Compound 102] | 0 | 0 | 0 | 0 | 0 | 15 | 0 | 0 | 45 | 70 | 10 | 20 | 10 | 10 | 0 | 0 | 50 | 65 | 10 | 15 | Plant response rating, Barnyardgrass [6, 7]: 0; Plant response rating, Barnyardgrass [6, 8]: 0; Plant response rating, Barnyardgrass [6, 9]: 0; Plant response rating, Barnyardgrass [6, 10]: 0
Cc1ccc(-c2nc(N)c(Br)c(C(=O)O)n2)cc1 [Compound 89] | 10 | 45 | 0 | 10 | 0 | 30 | 0 | 0 | 70 | 95 | 20 | 75 | 0 | 10 | 0 | 60 | 50 | 100 | 80 | 100 | Plant response rating, Barnyardgrass [6, 7]: 60; Plant response rating, Barnyardgrass [6, 8]: 85; Plant response rating, Barnyardgrass [6, 9]: 0; Plant response rating, Barnyardgrass [6, 10]: 50

Source: patent US8802597B2, “Herbicidal pyrimidines” (E I du Pont de Nemours and Company, priority 2003, dated 2014)
